Where only a bound is given, the exact number is not on record here.

The text below walks through data of patent US8557833B2, “Aminopyrimidines useful as kinase inhibitors” (priority 2005, dated 2013).

Holding throughout (assay type): biochemical
The target of one test is Arg (Abl-2) (Homo sapiens, UniProt P42684). Description: Arg (Abl-2) inhibition assay. Conditions: ATP at or close to Km. The text has this:
(§1) Compound I-1 was screened for its ability to inhibit Arg (Abl-2), FGFR1, MELK, MLK1, MuSK, Ret, and TrkA using screening methods known to one of ordinary skill in the art. All of the above enzymes were screened with ATP concentrations at or close to the Km for ATP.

A further test concerns the target MLK1 (Homo sapiens, UniProt P80192). Description: MLK1 inhibition assay. The note with it: ATP at or close to Km.
Text: as §1

The next test deals with Ret (Homo sapiens, UniProt P07949). Description: Ret inhibition assay. Conditions: ATP at or close to Km.
Text: as §1

For the next test, the target named is T1, MuSK (Homo sapiens, UniProt O15146).
T1 sequence (O15146 24-869): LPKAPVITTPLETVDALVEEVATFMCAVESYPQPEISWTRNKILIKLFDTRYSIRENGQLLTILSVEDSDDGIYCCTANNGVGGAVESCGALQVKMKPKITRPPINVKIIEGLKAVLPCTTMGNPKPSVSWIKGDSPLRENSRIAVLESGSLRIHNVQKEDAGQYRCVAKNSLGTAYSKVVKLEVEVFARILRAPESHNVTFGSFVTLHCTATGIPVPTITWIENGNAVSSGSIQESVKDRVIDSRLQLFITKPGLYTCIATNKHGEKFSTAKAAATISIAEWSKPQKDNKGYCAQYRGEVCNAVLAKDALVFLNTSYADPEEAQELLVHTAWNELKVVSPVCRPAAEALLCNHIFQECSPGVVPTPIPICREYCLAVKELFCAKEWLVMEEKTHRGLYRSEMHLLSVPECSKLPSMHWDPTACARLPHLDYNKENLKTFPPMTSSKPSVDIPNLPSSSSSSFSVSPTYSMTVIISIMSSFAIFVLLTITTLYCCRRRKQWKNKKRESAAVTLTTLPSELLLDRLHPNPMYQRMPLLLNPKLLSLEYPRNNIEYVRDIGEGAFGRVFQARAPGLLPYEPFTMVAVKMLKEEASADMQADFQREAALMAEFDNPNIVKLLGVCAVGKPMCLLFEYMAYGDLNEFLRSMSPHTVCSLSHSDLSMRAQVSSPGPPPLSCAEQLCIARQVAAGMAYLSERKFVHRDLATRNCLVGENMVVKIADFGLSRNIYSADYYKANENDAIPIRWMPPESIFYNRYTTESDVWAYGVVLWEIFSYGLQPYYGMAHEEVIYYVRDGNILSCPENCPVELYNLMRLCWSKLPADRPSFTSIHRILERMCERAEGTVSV
Description: MuSK inhibition assay. The note with it: ATP at or close to Km.
Text: as §1

The next test has as its target MELK (Homo sapiens, UniProt Q14680). Description: MELK inhibition assay. Conditions: ATP at or close to Km.
Text: as §1

The next test deals with TrkA (Homo sapiens, UniProt P04629). Description: TrkA inhibition assay. Conditions: ATP at or close to Km.
Text: as §1

The target in test [1] is N-terminally truncated Abl kinase. Description: Abl kinase activity inhibition assay, coupled enzyme. The note with it: read-out: Abl (wild) Ki; 110 μM ATP, 30° C., 21 nM Abl kinase. The method, then:
Final concentrations of the components of the coupled enzyme system were 2.5 mM phosphoenolpyruvate, 200 μM NADH, […] pyruvate kinase and 20 μg/ml lactate dehydrogenase.
An assay stock buffer solution was prepared containing all of the reagents listed above with the exception of ATP and the test compound of interest. […] Rates of reaction were obtained using a Molecular Devices Spectramax plate reader (Sunnyvale, Calif.) over 10 min at 30° C. The Ki values were determined from the residual rate data as a function of inhibitor concentration using nonlinear regression (Prism 3.0, Graphpad Software, San Diego, Calif.).

Another test concerns the target FGFR1 (Homo sapiens, UniProt P11362). Description: FGFR1 inhibition assay. Conditions: ATP at or close to Km.
Text: as §1

N-terminally truncated Abl kinase, sequence (P00519 28-1130): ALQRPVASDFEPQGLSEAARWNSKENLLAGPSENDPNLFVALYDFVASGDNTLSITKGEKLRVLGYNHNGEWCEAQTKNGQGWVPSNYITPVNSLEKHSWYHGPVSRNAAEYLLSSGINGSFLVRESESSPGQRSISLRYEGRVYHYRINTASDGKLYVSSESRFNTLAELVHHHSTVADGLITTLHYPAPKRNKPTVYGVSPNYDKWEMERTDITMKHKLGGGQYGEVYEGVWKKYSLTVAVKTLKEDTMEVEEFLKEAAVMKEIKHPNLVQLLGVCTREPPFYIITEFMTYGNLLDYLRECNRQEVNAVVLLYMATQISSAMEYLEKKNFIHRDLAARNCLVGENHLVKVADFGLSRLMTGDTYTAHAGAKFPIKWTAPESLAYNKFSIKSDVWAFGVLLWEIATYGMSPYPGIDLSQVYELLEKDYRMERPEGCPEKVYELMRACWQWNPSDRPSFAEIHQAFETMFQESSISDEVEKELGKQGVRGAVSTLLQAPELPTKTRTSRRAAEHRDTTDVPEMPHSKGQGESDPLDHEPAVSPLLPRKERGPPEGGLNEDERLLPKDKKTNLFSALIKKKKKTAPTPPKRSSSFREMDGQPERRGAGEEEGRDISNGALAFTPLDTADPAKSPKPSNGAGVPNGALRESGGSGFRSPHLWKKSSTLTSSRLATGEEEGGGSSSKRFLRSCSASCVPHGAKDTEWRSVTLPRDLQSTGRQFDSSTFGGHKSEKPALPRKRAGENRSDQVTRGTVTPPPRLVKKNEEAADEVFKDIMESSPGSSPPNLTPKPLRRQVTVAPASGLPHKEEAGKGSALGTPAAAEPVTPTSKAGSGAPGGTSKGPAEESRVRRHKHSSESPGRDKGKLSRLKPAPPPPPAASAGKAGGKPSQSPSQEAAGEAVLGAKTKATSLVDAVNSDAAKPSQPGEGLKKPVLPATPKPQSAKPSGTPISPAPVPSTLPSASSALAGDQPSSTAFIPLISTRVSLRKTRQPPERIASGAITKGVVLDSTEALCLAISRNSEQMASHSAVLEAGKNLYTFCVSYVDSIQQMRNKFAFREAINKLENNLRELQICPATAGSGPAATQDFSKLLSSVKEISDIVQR
MELK, sequence (Q14680 whole entry, species assumed): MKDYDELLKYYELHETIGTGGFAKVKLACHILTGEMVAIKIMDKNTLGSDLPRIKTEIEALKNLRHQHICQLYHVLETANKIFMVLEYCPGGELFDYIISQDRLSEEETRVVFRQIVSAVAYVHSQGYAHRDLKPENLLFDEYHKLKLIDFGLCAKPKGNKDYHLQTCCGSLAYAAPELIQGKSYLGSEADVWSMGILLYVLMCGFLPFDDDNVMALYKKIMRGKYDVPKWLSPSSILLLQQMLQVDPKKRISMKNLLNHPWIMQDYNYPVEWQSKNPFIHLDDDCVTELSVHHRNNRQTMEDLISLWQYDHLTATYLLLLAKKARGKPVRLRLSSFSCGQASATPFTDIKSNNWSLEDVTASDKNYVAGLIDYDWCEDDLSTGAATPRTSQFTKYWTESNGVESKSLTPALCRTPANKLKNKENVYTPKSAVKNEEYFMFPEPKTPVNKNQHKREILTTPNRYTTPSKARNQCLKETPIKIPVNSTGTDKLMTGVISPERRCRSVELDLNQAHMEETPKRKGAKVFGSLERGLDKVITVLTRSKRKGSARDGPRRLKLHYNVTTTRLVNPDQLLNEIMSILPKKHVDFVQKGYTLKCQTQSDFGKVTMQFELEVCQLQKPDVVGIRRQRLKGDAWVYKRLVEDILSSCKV
TrkA, sequence (P04629 33-796, species assumed): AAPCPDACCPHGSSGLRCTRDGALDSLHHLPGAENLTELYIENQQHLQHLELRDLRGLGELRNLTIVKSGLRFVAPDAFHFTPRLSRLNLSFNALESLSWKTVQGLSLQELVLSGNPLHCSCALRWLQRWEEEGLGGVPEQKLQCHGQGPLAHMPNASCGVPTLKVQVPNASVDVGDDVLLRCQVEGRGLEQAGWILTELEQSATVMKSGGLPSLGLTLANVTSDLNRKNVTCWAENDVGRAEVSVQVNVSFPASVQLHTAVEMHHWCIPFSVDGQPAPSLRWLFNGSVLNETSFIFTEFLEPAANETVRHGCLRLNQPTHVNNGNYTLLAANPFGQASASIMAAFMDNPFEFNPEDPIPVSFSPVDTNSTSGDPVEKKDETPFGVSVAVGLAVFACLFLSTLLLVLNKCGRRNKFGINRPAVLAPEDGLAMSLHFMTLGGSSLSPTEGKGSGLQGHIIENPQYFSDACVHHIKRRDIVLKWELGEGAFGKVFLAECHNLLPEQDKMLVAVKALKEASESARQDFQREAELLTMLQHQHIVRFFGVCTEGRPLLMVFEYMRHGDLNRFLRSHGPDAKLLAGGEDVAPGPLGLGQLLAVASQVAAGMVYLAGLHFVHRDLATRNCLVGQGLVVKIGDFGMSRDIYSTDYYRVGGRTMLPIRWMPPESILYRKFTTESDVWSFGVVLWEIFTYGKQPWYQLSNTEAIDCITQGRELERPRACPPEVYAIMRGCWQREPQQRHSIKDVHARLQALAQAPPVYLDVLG
MLK1, sequence (P80192 whole entry, species assumed): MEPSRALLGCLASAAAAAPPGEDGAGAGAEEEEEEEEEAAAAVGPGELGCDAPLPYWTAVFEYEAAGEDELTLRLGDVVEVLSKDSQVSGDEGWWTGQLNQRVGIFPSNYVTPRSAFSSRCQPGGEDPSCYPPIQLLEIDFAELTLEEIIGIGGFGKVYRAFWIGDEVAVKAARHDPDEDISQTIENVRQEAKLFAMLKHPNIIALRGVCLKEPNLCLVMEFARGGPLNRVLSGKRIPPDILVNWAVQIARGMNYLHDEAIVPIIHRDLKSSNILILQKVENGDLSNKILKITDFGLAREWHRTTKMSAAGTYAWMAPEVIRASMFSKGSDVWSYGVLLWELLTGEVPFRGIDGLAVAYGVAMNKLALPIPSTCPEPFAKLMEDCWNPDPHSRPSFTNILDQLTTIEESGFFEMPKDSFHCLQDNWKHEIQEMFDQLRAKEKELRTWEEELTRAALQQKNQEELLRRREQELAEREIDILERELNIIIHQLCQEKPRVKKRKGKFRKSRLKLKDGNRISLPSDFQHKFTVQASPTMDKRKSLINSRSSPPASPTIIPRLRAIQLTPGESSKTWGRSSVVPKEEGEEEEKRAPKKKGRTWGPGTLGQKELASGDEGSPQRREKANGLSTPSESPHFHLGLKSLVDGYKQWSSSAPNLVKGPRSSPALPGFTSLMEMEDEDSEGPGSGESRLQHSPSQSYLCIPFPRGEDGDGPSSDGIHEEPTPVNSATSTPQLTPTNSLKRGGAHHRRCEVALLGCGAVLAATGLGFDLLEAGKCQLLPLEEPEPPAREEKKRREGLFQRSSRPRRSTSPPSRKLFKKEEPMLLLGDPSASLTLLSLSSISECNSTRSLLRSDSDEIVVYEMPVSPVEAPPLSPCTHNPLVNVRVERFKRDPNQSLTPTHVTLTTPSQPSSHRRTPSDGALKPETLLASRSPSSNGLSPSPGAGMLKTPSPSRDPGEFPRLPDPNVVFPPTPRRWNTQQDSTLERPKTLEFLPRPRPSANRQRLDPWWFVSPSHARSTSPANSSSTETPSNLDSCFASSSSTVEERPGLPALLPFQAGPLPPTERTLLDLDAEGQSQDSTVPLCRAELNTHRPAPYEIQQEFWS
Arg (Abl-2), sequence (P42684 whole entry, species assumed): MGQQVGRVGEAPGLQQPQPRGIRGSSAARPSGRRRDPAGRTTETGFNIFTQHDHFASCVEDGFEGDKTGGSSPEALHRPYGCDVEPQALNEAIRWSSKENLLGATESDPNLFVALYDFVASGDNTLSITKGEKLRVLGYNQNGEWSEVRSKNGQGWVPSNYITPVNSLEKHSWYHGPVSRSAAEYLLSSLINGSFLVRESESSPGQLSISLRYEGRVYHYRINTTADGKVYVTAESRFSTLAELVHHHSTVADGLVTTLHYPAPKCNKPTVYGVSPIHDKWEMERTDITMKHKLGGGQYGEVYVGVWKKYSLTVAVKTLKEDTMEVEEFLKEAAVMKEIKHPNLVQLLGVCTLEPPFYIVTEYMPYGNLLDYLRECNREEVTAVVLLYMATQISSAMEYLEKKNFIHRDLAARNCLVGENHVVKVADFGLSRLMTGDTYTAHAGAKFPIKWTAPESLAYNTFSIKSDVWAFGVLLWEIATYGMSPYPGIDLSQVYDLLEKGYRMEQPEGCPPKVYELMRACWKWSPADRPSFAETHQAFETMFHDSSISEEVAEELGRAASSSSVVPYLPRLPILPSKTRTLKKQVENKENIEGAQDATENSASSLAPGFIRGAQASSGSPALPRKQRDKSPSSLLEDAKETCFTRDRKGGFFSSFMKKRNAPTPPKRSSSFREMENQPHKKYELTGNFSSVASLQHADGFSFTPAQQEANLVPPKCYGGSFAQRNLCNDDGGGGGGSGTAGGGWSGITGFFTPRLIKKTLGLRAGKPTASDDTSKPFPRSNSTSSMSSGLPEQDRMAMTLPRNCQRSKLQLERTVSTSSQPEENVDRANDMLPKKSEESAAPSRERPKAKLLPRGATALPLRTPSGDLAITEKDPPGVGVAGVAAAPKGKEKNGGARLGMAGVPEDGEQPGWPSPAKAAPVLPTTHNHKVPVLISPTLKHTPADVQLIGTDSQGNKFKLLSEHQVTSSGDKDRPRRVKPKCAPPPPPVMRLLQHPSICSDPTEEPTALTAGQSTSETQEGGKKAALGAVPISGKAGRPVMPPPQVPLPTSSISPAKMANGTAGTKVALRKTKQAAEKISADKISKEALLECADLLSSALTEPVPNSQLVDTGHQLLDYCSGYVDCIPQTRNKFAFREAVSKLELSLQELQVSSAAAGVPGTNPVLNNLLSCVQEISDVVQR

Take `Cc1cc(Nc2cc(N3CCC3)nc(Sc3ccc(NC(=O)c4ccccc4Cl)cc3)n2)[nH]n1` [Compound I-1, N-{4-[4-Azetidin-1-yl-6-(5-methyl-2H-pyrazol-3-ylamino)-pyrimidin-2-ylsulfanyl]-phenyl}-2-chloro-benzamide]: the inhibitory constant (Ki) was 12 nM at Arg (Abl-2); less than 18 nM at MLK1; 8 nM at Ret; 70 nM on MuSK; 17 nM on MELK; less than 6 nM on TrkA. In addition, the figures for the Ki (in test [1]; at FGFR1) were 36 nM and 5 nM, respectively.
Consider `Cc1cc(Nc2cc(N3CCC3)nc(Sc3ccc(NC(=O)c4c(F)cccc4F)cc3)n2)[nH]n1` [Compound I-2, N-{4-[4-Azetidin-1-yl-6-(5-methyl-2H-pyrazol-3-ylamino)-pyrimidin-2-ylsulfanyl]-phenyl}-2,6-Difluoro-benzamide], for which the Ki in test [1] was determined as 7 nM.
The same measure, in the same setting: with `Cc1cc(Nc2cc(N3CCC3)nc(Sc3ccc(NC(=O)c4ccccc4C)cc3)n2)[nH]n1` [Compound I-5] the figure was 68 nM.
Same read-out and setting: in the case of `Cc1cc(Nc2cc(N3CCC3)nc(Sc3ccc(NC(=O)c4c(Cl)cccc4Cl)cc3)n2)n[nH]1` [Compound I-11] it was 21 nM.
Still for that read-out and setting: with `Cc1cc(Nc2cc(N3CCC3)nc(Sc3ccc(NC(=O)c4ccccc4C(F)(F)F)cc3)n2)[nH]n1` [Compound I-14] the figure was 36 nM; with `Cc1cc(Nc2cc(N3CCC3)nc(Sc3ccc(NC(=O)c4cccc(Cl)c4F)cc3)n2)n[nH]1` [Compound I-15], 31 nM.

One may read the Ki as the equilibrium dissociation constant of an inhibitor or competing ligand from its target.
